Measurements reported in ChEMBL document CHEMBL5143616, “Novel biphenyl-based scaffold as potent and selective histone deacetylase 6 (HDAC6) inhibitors: Identification, development and pharmacological evaluation” (Eur J Med Chem, 2022).
Calls of active or inactive are those of the source. The rule behind the calls is not given here.

How the values were obtained:
[1] = molecular target: T1, Protein deacetylase HDAC6 (Mus musculus) (UniProt Q9Z2V5); assay: Inhibition of HDAC6 in mouse CT26 cells assessed as accumulation of acetylated alpha-tubulin level at 2 to 6 uM after 24 hrs by Western blotting analysis; type: cell-based; conditions: dose 2-6 µM, DDE = dose-dependent effect
T1 sequence (whole entry): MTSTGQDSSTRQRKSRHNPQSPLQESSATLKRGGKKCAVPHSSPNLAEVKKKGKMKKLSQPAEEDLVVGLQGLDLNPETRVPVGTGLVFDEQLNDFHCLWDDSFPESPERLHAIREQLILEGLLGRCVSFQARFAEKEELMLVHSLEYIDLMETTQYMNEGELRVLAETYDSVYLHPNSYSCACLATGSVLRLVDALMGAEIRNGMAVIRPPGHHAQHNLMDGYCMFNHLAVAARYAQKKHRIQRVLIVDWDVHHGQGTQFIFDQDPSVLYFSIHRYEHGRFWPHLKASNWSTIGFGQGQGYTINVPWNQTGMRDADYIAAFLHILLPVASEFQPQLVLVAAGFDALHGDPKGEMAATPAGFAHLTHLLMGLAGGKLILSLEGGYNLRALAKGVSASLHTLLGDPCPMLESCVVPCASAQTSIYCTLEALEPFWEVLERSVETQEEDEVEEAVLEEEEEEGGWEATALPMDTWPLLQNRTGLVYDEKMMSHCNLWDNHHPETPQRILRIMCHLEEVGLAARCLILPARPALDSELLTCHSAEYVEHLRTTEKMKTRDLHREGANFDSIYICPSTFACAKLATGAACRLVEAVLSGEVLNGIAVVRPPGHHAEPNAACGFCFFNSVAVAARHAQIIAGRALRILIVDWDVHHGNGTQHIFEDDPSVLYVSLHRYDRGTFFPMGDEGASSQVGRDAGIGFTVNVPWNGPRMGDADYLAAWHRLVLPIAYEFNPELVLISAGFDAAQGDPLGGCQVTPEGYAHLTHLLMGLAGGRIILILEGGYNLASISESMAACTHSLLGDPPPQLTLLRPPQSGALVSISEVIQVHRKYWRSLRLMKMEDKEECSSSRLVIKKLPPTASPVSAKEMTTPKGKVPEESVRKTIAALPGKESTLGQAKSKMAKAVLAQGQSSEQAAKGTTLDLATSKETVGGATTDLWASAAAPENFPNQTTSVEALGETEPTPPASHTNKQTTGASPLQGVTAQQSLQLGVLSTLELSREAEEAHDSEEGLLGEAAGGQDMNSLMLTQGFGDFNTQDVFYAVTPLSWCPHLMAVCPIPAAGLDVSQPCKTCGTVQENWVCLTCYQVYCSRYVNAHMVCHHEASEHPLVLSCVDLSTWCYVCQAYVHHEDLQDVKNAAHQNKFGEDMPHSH

[2] = Stability in human liver microsomes assessed as clearance and measured by LC-MS/MS analysis; type: ADME, Microsome; conditions: read-out: CLH
[3] = Stability in mouse liver microsomes assessed as clearance and measured by LC-MS/MS analysis; type: ADME, Microsome; conditions: read-out: CLH
Histone deacetylase 3 = Histone deacetylase 3 (Homo sapiens, UniProt O15379); assay: Inhibition of HDAC3 (unknown origin)
[4] = molecular target: T1, Protein deacetylase HDAC6 (Mus musculus); assay: Inhibition of HDAC6 in mouse CT26 cells assessed as accumulation of acetylated alpha-tubulin level at 6 uM after 2 to 24 hrs by Western blotting analysis; type: cell-based; conditions: time 2-24 hrs, TDE = time-dependent effect
Histone deacetylase 8 = molecular target: T2, Histone deacetylase 8 (Homo sapiens, UniProt Q9BY41); assay: Inhibition of HDAC8 (unknown origin) using Boc-Lys-(triflouroacetyl)-AMC as substrate incubated for 0.5 hr and measured after 20 mins by fluorescence assay
T2 sequence (Q9BY41 whole entry): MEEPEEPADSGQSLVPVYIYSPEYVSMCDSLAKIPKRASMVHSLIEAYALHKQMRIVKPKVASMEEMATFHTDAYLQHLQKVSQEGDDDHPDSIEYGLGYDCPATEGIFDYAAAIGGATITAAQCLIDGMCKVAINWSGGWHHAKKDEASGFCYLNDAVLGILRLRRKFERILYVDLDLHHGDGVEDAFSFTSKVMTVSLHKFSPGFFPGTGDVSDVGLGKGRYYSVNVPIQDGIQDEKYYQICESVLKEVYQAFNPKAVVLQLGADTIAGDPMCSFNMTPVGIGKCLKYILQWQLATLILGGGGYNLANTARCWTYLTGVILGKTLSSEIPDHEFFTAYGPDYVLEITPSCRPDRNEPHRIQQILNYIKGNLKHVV

[5] = molecular target: T1, Protein deacetylase HDAC6 (Mus musculus); assay: Inhibition of HDAC6 in mouse B16 cells assessed as accumulation of acetylated alpha-tubulin level at 2 to 6 uM after 24 hrs by Western blotting analysis; type: cell-based; conditions: dose 2-6 µM, DDE = dose-dependent effect
[6] = molecular target: T1, Protein deacetylase HDAC6 (Mus musculus); assay: Inhibition of HDAC6 in mouse B16 cells assessed as accumulation of acetylated alpha-tubulin level after 24 hrs by Western blotting analysis; type: cell-based
[7] = molecular target: T1, Protein deacetylase HDAC6 (Mus musculus); assay: Inhibition of HDAC6 in mouse B16 cells assessed as accumulation of acetylated alpha-tubulin level at 6 uM after 2 to 12 hrs by Western blotting analysis; type: cell-based; conditions: time 2-12 hrs, TDE = time-dependent effect
[8] = Stability in mouse plasma incubated for 6 hrs in presence of NADPH and measured by LC-MS/MS analysis; type: ADME, cell-free; conditions: read-out: Stability
[9] = Stability in human liver microsomes assessed as half-life and measured by LC-MS/MS analysis; type: ADME, Microsome
[10] = Stability in human plasma incubated for 6 hrs in presence of NADPH and measured by LC-MS/MS analysis; type: ADME, cell-free; conditions: read-out: Stability
Histone deacetylase 2 = Histone deacetylase 2 (Homo sapiens, UniProt Q92769)
Description: Inhibition of HDAC2 (unknown origin) using Boc-Lys-(acetyl)-AMC as substrate incubated for 0.5 hr and measured after 20 mins by fluorescence assay

[11] = Stability in mouse liver microsomes assessed as half-life and measured by LC-MS/MS analysis; type: ADME, Microsome
B16 = assay: Antiproliferative activity against mouse B16 cells after 72 hrs by MTT assay; type: functional, cell-based; conditions: B16, 72 h
CT26 [12] = assay: Antitumor immunity in C57BL/6 mouse xenografted with mouse CT26 cells assessed as increase in CD3+ cytotoxic T cells at 50 mg/kg, po administered once daily for 21 days measured by flow cytometry analysis; type: functional; conditions: time 21 day
CT26 [13] = assay: Antitumor immunity in C57BL/6 mouse xenografted with mouse CT26 cells assessed as increase in CD3+ CD8+ cytotoxic T cells at 100 mg/kg, po administered once daily for 21 days measured by flow cytometry analysis; type: functional; conditions: time 21 day
CT26 [14] = assay: Antitumor immunity in C57BL/6 mouse xenografted with mouse CT26 cells assessed as decrease in number of CD4+CD25+ CD127- T regulatory cells at 100 mg/kg, po administered once daily for 21 days measured by flow cytometry analysis; type: functional; set-up: scale not given: the % may be the effect or the level left; conditions: time 21 day
CT26 [15] = assay: Antitumor immunity in C57BL/6 mouse xenografted with mouse CT26 cells assessed as decrease in number of CD8+IFNgamma+ T cells at 100 mg/kg, po administered once daily for 21 days measured by flow cytometry analysis; type: functional; set-up: scale not given: the % may be the effect or the level left; conditions: time 21 day
CT26 [16] = assay: Induction of apoptosis in mouse CT26 cells assessed as apoptotic cells at 6 uM measured by Annexin V-FITC/PI staining based flow cytometry method; type: functional

Histone deacetylase 2, sequence (Q92769 whole entry): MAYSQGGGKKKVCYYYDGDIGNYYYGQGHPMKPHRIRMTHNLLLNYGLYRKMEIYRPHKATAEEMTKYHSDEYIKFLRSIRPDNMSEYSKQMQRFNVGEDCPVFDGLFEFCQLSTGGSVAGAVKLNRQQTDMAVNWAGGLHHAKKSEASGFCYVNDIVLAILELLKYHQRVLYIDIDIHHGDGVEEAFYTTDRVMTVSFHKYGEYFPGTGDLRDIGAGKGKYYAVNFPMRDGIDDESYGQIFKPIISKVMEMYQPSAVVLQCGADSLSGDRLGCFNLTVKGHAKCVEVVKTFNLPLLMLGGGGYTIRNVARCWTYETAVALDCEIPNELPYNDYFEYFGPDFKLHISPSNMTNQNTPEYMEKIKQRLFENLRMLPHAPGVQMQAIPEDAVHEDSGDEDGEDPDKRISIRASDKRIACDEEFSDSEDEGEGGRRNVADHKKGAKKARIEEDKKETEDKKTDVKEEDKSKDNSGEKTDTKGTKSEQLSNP
Histone deacetylase 3, sequence (O15379 whole entry): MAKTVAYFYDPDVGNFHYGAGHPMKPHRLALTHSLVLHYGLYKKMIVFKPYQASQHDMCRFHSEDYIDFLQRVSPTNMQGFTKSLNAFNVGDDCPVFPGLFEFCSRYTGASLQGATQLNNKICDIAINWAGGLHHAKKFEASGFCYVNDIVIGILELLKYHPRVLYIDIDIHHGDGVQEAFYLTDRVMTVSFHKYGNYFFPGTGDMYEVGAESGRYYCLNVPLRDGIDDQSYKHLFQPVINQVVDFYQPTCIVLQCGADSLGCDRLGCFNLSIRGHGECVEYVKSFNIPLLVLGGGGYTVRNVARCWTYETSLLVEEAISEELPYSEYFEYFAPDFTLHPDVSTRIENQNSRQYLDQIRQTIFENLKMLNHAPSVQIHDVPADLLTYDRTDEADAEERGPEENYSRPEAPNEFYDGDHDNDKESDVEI

## COc1cc(OCc2cccc(-c3ccccc3)c2C)cc(OC)c1CNCCCCCCC(=O)NO
[1]
  inhibition: Dde
[2]
  microsomal CLint: 34.1 µL/min/mg
[3]
  microsomal CLint: 20.4 µL/min/mg
Histone deacetylase 3
  IC50: 46 nM
[4]
  inhibition: Tde
Histone deacetylase 8
  IC50: 2180 nM
[5]
  inhibition: Dde
[6]
  acetylated alpha-tubulin accumulation: Active
[7]
  inhibition: Tde
[8]
  remaining at 6 h: 23%
[9]
  half-life: 1.7 h
[10]
  remaining at 6 h: 97%
Histone deacetylase 2
  IC50: 172 nM
[11]; liver microsomes
  half-life: 1.13 h

## Cc1c(COc2ccc(CNCCCCCCC(=O)NO)c(OCc3cccc(C#N)c3)c2)cccc1-c1ccccc1
[6]
  acetylated alpha-tubulin accumulation: Active

## COc1cc(OCc2cccc(-c3ccccc3)c2C)cc(OC)c1CNCCCCCC(=O)NO
[6]
  acetylated alpha-tubulin accumulation: Active

## COc1cc(OCc2cccc(-c3ccc4c(c3)OCCO4)c2C)cc(OC)c1CNCCCCCC(=O)NO
[6]
  acetylated alpha-tubulin accumulation: Active

## O=C(CCCCCCC(=O)Nc1ccccc1)NO [VORINOSTAT]
[2]
  microsomal CLint: 4.02 µL/min/mg
B16
  IC50: 2260 nM
[3]
  microsomal CLint: 2.04 µL/min/mg
CT26 [12]
  Activity: 57.83%
CT26 [13]
  Activity: 32.56%
CT26 [14]
  Activity: 27.99%
CT26 [15]
  Activity: 21.12%
CT26 [16]
  Activity: 26%
[8]
  remaining at 6 h: 20%
[9]
  half-life: 4.32 h
[10]
  remaining at 6 h: 77%
[11]; microsomes
  t1/2: 11.6 h
